Assay results: patent US20150313927A1, “AN EDIBLE COMPOSITION COMPRISING RESVERATROL AND FLAVONOID MONOGLUCOSIDE” (Conopco, Inc., d/b/a UNILEVER, priority 2012, published 2015)
“And” between values parts separate entries of the source, which are not always exact repeats. Equal values may be shown once.

Assays:
GLUT2 = target: T1, GLUT2 (Homo sapiens, UniProt P11168); assay: Glucose transport inhibitor cell screening assay, 25 mM D-glucose for 30 minutes; conditions: for % Glucose Transport inhibition 25 mM / GLUT2 inhibition (in words): 25 mM D-glucose; for % Glucose Transport inhibition 25 mM: 30 minutes, actives at 150 uM, differentiated Caco-2 monolayer; for inhibition at 25000 µM: Caco-2, read-out: % Glucose Transport inhibition 25 mM; for GLUT2 inhibition (in words): Caco-2 cell model
T1 sequence (P11168 1-524): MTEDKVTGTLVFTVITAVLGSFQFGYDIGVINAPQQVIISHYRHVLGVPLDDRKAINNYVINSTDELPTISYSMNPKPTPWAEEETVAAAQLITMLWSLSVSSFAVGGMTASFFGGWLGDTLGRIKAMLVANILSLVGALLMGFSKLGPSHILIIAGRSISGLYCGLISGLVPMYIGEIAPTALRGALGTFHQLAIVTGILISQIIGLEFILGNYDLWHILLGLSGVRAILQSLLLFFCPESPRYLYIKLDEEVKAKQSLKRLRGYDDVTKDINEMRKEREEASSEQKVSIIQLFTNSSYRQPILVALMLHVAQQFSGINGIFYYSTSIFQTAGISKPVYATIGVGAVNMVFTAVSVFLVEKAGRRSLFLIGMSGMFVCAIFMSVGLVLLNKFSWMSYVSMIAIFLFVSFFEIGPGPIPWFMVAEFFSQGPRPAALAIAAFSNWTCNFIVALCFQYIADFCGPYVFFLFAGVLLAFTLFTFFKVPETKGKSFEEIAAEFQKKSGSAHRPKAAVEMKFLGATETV

SGLT1 = assay: Glucose transport inhibitor cell screening assay, 5 mM D-glucose for 15 minutes; conditions: for % Glucose Transport inhibition 5 mM / SGLT1 inhibitory activity (in words): 5 mM D-glucose; for % Glucose Transport inhibition 5 mM: 15 minutes, actives at 300 uM, differentiated Caco-2 monolayer; for SGLT1 inhibitory activity (in words): Caco-2 cell model; for Class (assigned class of transporter inhibited): based on inhibition at 5 mM and 25 mM D-glucose
[1] = target: T2, Human Lactase Phloridzin Hydrolase (hLPH) (Homo sapiens, UniProt P09848); assay: hLPH enzyme assay (glucoside hydrolysis by LPH extract); assay type: in vitro ADME; conditions: for μM substrate hydrolysed/hr: glucoside 1.0 mM, 10% LPH extract (Caco2), 1 hour, 37° C., pH 6.0; for Resistance to hydrolysis - % Q4G: resistance to LPH hydrolysis relative to quercetin-4-glucoside (Q4G)
T2 construct: at confluence for 21 days prior to extraction with a Novagen ProteoExtract™ trans-membrane Protein Extraction kit; endogenous in cells; host or cells: Caco-2 cells (ATCC), 21 days at confluence; membrane protein extract desalted over G-25 Sephadex
Experimental: Extracts were stored at −80° C. in 50 ul aliquots. Prior to use extracts were semi-purified, removing low molecular weight interfering components by passing through a small G-25 Sephadex 50-100 μl spin-column (Roche or ThermoFisher Scientific). 10 μl of semi-purified LPH extract was added to 90 μl of glucoside (1.0 mM final concentration) in 0.1 M maleate (Sigma) buffer, pH 6.0 and incubated for 60 minutes at 37° C. The reaction was terminated by addition of 200 μl 2M Tris (Sigma), pH 8.0. […] This allowed a full recovery of glucose which was measured using the Amplex® Red Glucose/Glucose Oxidase Assay. […] Fluorescence was read on a SpectraMax Gemini EM SN plate reader (Molecular Devices) (excitation. 530 nm and emission at 590 nm).

[2] = system: differentiated Caco-2 monolayers; assay: Glucose transport cell model, total cumulative glucose transport (synergy); assay type: cell-based, Human; conditions: active only in 25 mM D-glucose for remaining 45 minutes (NC Pz 300 μM, NC R 75 μM)

T2 sequence (P09848 869-1927): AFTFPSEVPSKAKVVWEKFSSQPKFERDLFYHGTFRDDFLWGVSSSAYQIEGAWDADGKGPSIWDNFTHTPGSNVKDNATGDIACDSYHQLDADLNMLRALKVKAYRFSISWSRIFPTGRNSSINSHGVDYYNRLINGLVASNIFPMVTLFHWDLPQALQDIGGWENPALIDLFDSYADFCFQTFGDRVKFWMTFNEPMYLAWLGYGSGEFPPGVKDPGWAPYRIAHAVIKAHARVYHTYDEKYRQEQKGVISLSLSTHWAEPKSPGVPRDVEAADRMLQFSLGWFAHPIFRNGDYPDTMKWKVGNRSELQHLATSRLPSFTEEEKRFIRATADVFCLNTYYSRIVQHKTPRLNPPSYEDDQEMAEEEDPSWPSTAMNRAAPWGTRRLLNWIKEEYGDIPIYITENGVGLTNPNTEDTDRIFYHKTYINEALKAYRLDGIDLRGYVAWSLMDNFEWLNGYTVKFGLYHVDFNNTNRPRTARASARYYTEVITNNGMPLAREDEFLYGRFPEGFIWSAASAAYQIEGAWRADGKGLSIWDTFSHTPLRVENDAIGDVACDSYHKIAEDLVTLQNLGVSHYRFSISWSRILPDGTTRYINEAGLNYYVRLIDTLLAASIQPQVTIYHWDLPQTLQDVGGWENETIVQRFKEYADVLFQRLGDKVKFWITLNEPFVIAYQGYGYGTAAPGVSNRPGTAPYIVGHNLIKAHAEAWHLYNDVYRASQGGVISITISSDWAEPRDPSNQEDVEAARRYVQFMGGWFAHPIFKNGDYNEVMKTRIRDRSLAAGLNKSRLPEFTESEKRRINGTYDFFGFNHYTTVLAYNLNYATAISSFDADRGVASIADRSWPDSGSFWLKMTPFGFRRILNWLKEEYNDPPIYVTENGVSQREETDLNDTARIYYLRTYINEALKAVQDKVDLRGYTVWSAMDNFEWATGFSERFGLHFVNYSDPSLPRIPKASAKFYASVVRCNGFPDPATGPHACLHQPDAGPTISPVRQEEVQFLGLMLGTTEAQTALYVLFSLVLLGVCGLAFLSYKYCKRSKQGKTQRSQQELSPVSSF

## O=c1cc(-c2ccc(O)cc2)oc2cc(OC3O[C@H](CO)[C@@H](O)[C@H](O)[C@H]3O)cc(O)c12 (stereo partly drawn) [Apigenin-7-glucoside]
GLUT2
  % Glucose Transport inhibition 25 mM: 12.81%

## O=c1cc(-c2ccc(O)cc2)oc2c([C@@H]3O[C@H](CO)[C@@H](O)[C@H](O)[C@H]3O)c(O)cc(O)c12 [Apigenin-8-C-glucoside]
SGLT1
  % Glucose Transport inhibition 5 mM: 33.84%
  SGLT1 inhibitory activity (in words): inhibition of SGLT1
  Class (assigned class of transporter inhibited): SGLT1
[1]
  μM substrate hydrolysed/hr: 0.685 μM substrate hydrolysed/hr
[1]; listed as A8G
  Resistance to hydrolysis - % Q4G: 77.90%
GLUT2
  % Glucose Transport inhibition 25 mM: 5.76%

## Oc1cc(O)c2cc(O)c(-c3ccc(O)c(O)c3)[o+]c2c1 [Cyanidin]
SGLT1
  % Glucose Transport inhibition 5 mM: 7.93%

## O=c1c(-c2ccc(O)cc2)coc2cc(O[C@@H]3O[C@H](CO)[C@@H](O)[C@H](O)[C@H]3O)ccc12 [Daidzein-7-glucoside]
SGLT1
  % Glucose Transport inhibition 5 mM: 35.03%
  SGLT1 inhibitory activity (in words): inhibition of SGLT1
  Class (assigned class of transporter inhibited): SGLT1
GLUT2
  % Glucose Transport inhibition 25 mM: 7.23%

## O=c1c(-c2ccc(O)cc2)coc2c([C@@H]3O[C@H](CO)[C@@H](O)[C@H](O)[C@H]3O)c(O)ccc12 [Daidzein-8-C-glucoside]
[1]; listed as D8G
  Resistance to hydrolysis - % Q4G: 82.19%

## Oc1cc(O)c2cc(O)c(-c3cc(O)c(O)c(O)c3)[o+]c2c1 [Delphinindin]
SGLT1
  Class (assigned class of transporter inhibited): None
GLUT2
  % Glucose Transport inhibition 25 mM: 15.86%

## O=C1C[C@@H](c2ccc(O)c(O)c2)Oc2cc(O[C@@H]3O[C@H](CO)[C@@H](O)[C@H](O)[C@H]3O)cc(O)c21 [Eriodictyol-7-O-glucoside]
GLUT2
  % Glucose Transport inhibition 25 mM: 4.98%

## O=c1c(O[C@@H]2O[C@H](CO)[C@@H](O)[C@H](O)[C@H]2O)c(-c2ccc(O)cc2)oc2cc(O)cc(O)c12 [Kaempferol 3-O-glucoside]
[1]; listed as K3G
  Resistance to hydrolysis - % Q4G: 92.8% and 92.78%

## O=c1c(O)c(-c2ccc(O)cc2)oc2cc(O[C@@H]3O[C@H](CO)[C@@H](O)[C@H](O)[C@H]3O)cc(O)c12 [Kaempferol 7-O-glucoside]
SGLT1
  % Glucose Transport inhibition 5 mM: 43.89%
  SGLT1 inhibitory activity (in words): inhibition of SGLT1
  Class (assigned class of transporter inhibited): SGLT1
[1]
  μM substrate hydrolysed/hr: 0.618 μM substrate hydrolysed/hr
[1]; listed as K7G
  Resistance to hydrolysis - % Q4G: 80.05%
GLUT2
  % Glucose Transport inhibition 25 mM: 14.42%

## O=c1cc(-c2ccc(O)c(O)c2)oc2cc(O[C@@H]3O[C@H](CO)[C@@H](O)[C@H](O)[C@H]3O)cc(O)c12 [Luteolin-7-glucoside]
SGLT1
  % Glucose Transport inhibition 5 mM: 44.09%
  SGLT1 inhibitory activity (in words): inhibition of SGLT1
  Class (assigned class of transporter inhibited): SGLT1
[1]
  μM substrate hydrolysed/hr: 0.814 μM substrate hydrolysed/hr
[1]; listed as L7G
  Resistance to hydrolysis - % Q4G: 73.72%
GLUT2
  % Glucose Transport inhibition 25 mM: 17.03%

## COc1cc(-c2[o+]c3cc(O)cc(O)c3cc2O[C@@H]2O[C@H](CO)[C@H](O)[C@H](O)[C@H]2O)cc(OC)c1O [Malvidin 3-O-Galactoside]
GLUT2
  % Glucose Transport inhibition 25 mM: 10.41%

## COc1cc(-c2[o+]c3cc(O)cc(O)c3cc2O[C@@H]2O[C@H](CO)[C@@H](O)[C@H](O)[C@H]2O)cc(OC)c1O [Malvidin-3-O-glucoside]
GLUT2
  % Glucose Transport inhibition 25 mM: 10.91%

## COc1cc(-c2[o+]c3cc(O)cc(O)c3cc2O)cc(OC)c1O [Malvidin]
SGLT1
  % Glucose Transport inhibition 5 mM: 14.21%
GLUT2
  inhibition at 25000 µM: 4.99%

## O=C1CC(c2ccc(O)cc2)Oc2cc(O[C@@H]3O[C@H](CO)[C@@H](O)[C@H](O)[C@H]3O)cc(O)c21 (stereo partly drawn) [Naringenin-7-O-glucoside]
[1]; listed as N7G
  Resistance to hydrolysis - % Q4G: 49.5% and 49.52%
GLUT2
  % Glucose Transport inhibition 25 mM: 0.06%

## OC[C@H]1O[C@@H](Oc2cc3c(O)cc(O)cc3[o+]c2-c2ccc(O)cc2)[C@H](O)[C@@H](O)[C@@H]1O [Pelargonidin-3-glucoside]
[1]; listed as P3G
  Resistance to hydrolysis - % Q4G: 58.94%

## Oc1ccc(-c2[o+]c3cc(O)cc(O)c3cc2O)cc1 [Pelargonidin]
SGLT1
  % Glucose Transport inhibition 5 mM: 4.07%
GLUT2
  inhibition at 25000 µM: 16.5%

## O=C(CCc1ccc(O)cc1)c1c(O)cc(O)cc1O[C@@H]1O[C@H](CO)[C@@H](O)[C@H](O)[C@H]1O [Phloridzin, reference compound]
[1]
  μM substrate hydrolysed/hr: 0.507 μM substrate hydrolysed/hr
  Resistance to hydrolysis - % Q4G: at least 20%
[1]; listed as PLZ
  Resistance to hydrolysis - % Q4G: 83.64%
[2]
  total Cumulative Glucose Transport (tCGT), active added later with high D-glucose: no inhibition
GLUT2
  inhibition at 25000 µM: 18.4%

## Oc1cc(O)cc(/C=C/c2ccc(O)c(O)c2)c1 [Piceatannol]
SGLT1
  % Glucose Transport inhibition 5 mM: 89.28%
  Class (assigned class of transporter inhibited): GLUT2 (GLUT2 having >20% inhibition at both 5 mM & 25 mM)
GLUT2
  inhibition at 25000 µM: 32.7%

## COc1cc(/C=C/c2ccc(O)cc2)cc(OC)c1 [Pterostilbene]
SGLT1
  % Glucose Transport inhibition 5 mM: 18.44%
GLUT2
  inhibition at 25000 µM: 8.26%

## Oc1ccc(C=Cc2cc(O)cc(O)c2)cc1 [Resveratrol]
SGLT1
  % Glucose Transport inhibition 5 mM: 76.07%
  Class (assigned class of transporter inhibited): GLUT2 (GLUT2 having >20% inhibition at both 5 mM & 25 mM)
[2]
  total Cumulative Glucose Transport (tCGT), active added later with high D-glucose: significant reduction
GLUT2
  inhibition at 25000 µM: 59%
  GLUT2 inhibition (in words): GLUT2 inhibitors

## OC[C@H]1O[C@@H](Oc2ccc(O)cc2)[C@H](O)[C@@H](O)[C@@H]1O [arbutin]
SGLT1
  SGLT1 inhibitory activity (in words): lack of SGLT1 inhibitory activity

## O=C(O)/C=C/c1ccc(O)c(O)c1 [caffeic acid]
SGLT1
  SGLT1 inhibitory activity (in words): no inhibitory activity
GLUT2
  GLUT2 inhibition (in words): no inhibitory activity

## O=C(/C=C/c1ccc(O)c(O)c1)O[C@@H]1C[C@](O)(C(=O)O)C[C@@H](O)[C@H]1O [chlorogenic acid]
SGLT1
  SGLT1 inhibitory activity (in words): no inhibitory activity
GLUT2
  GLUT2 inhibition (in words): no inhibitory activity

## O=C(/C=C/c1ccc(O)c(O)c1)O[C@H](Cc1ccc(O)c(O)c1)C(=O)O [rosmarinic acid]
SGLT1
  SGLT1 inhibitory activity (in words): no inhibitory activity
GLUT2
  GLUT2 inhibition (in words): no inhibitory activity
